From patent US12144795B2, “Cannabidiol compositions having modified cannabinoid profiles” (priority 2018, dated 2024)

Key:
[1] = HPLC method quantifying low levels of D9-THC in stored cannabidiol samples; assay type: physicochemical; details: after storage at −16° C. for two years
Description: An analytical method using HPLC was developed to determine low levels of delta-9-tetrahydrocannabinol in cannabidiol samples. A Waters XBridge C18 3.5 μm, 3.0×150 mm column was employed and operated at a temperature of 30° C., UV wavelength of 225 nm, and injection size of 20 μL. Mobile Phase A was 0.02% (v/v) acetic acid in H2O, while mobile phase B was 0.02% (v/v) acetic acid in acetonitrile (ACN).
An aliquot of 0.5 mL of a D9-THC reference standard (Cerilliant, 1.0 mg/mL MeOH solution) was diluted in a 500-mL volumetric flask using sample diluent (70/30 Acetonitrile/H2O, v/v). The D9-THC concentration was 0.001 mg/mL in the standard stock solution, which corresponded with 200 ppm of D9-THC as compared to the CBD sample solution (nominal CBD concentration was 5.0 mg/mL).
An Aliquot of 5 mL of THC Stock Standard Solution was diluted in a 100-mL volumetric flask using the sample diluent. The D9-THC concentration was 0.00005 mg/mL in the working standard solution, corresponding with 10 ppm of D9-THC as compared to the CBD sample solution.
About 50 mg of cannabidiol sample was weighed into a 10-mL volumetric flask. The volumetric flask was diluted to volume using sample diluent and mixed well.
A minimum of 6 working standard solutions were injected prior to the sample set. Furthermore, a maximum of 6 injections of CBD sample were injected between bracketing working standard solutions.
The amount of THC in each sample was calculated using the following
For reference, each chromatogram in FIG. 6A through FIG. 6F is shown against a 10 ppm THC working standard. For samples 1, 2, and 3, roughly 50.28 mg, 50.77 mg, and 55.60 mg material was used.

[2] = Stability studies of CBD prepared via Protocol 3 (crude, pure, 2x recrystallized; 5° C., 25° C./60% RH, 40° C./75% RH); assay type: physicochemical

C=C(C)[C@@H]1CCC(C)=C[C@H]1c1c(O)cc(CCCCC)cc1O [Sample 6, Cannabidiol]
Result (D9-THC in ppm) [1]: 7.3 ppm

C=C(C)[C@@H]1CCC(C)=C[C@H]1c1c(O)cc(CCCCC)cc1O [Crude CBD]
Appearance ([2]; 25° C./60% RH, 0 month): White
Assay by HPLC ([2]; 25° C./60% RH, 0 month): 99.9%
Each unspecified impurity: RRT~1.540 ([2]; 25° C./60% RH, 0 month): 0.06%
Each unspecified impurity: RRT~1.690 ([2]; 25° C./60% RH, 0 month): 0.11%
Related substances by HPLC (low level): Δ9-Tetrahydrocannabinol ([2]; 25° C./60% RH, 0 month): 26 ppm
Related substances by HPLC: 4-Monobromo-CBD ([2]; 25° C./60% RH, 0 month): <0.03% (0.02%)
Related substances by HPLC: Olivetol ([2]; 25° C./60% RH, 0 month): <0.03% (ND)
Related substances by HPLC: Sum of impurities, ≥0.05% ([2]; 25° C./60% RH, 0 month): 0.17%
Related substances by HPLC: Δ9-Tetrahydrocannabinol ([2]; 25° C./60% RH, 0 month): <0.02% (ND)
Appearance ([2]; 25° C./60% RH, 1 month): Off-White
Assay by HPLC ([2]; 25° C./60% RH, 1 month): 98.2%
Each unspecified impurity: RRT~1.927 ([2]; 25° C./60% RH, 1 month): 0.07%
Each unspecified impurity: RRT~2.146 ([2]; 25° C./60% RH, 1 month): 0.12%
Related substances by HPLC (low level): Δ8-Tetrahydrocannabinol ([2]; 25° C./60% RH, 1 month): 6 ppm
Related substances by HPLC (low level): Δ9-Tetrahydrocannabinol ([2]; 25° C./60% RH, 1 month): 29 ppm
Related substances by HPLC: 4-Monobromo-CBD ([2]; 25° C./60% RH, 1 month): <0.03% (0.02)
Related substances by HPLC: Olivetol ([2]; 25° C./60% RH, 1 month): <0.03% (ND)
Related substances by HPLC: Sum of impurities, ≥0.05% ([2]; 25° C./60% RH, 1 month): 0.19%
Related substances by HPLC: Δ8-Tetrahydrocannabinol ([2]; 25° C./60% RH, 1 month): <0.02% (ND)
Related substances by HPLC: Δ9-Tetrahydrocannabinol ([2]; 25° C./60% RH, 1 month): <0.02% (ND)
Appearance ([2]; 25° C./60% RH, 2 months): Off-White
Assay by HPLC ([2]; 25° C./60% RH, 2 months): 99.5%
Each unspecified impurity: RRT~1.931 ([2]; 25° C./60% RH, 2 months): 0.06%
Each unspecified impurity: RRT~2.151 ([2]; 25° C./60% RH, 2 months): 0.09%
Related substances by HPLC (low level): Δ8-Tetrahydrocannabinol ([2]; 25° C./60% RH, 2 months): 5 ppm
Related substances by HPLC (low level): Δ9-Tetrahydrocannabinol ([2]; 25° C./60% RH, 2 months): 27 ppm
Related substances by HPLC: 4-Monobromo-CBD ([2]; 25° C./60% RH, 2 months): <0.03% (0.02%)
Related substances by HPLC: Olivetol ([2]; 25° C./60% RH, 2 months): <0.03% (0.02%)
Related substances by HPLC: Sum of impurities, ≥0.05% ([2]; 25° C./60% RH, 2 months): 0.15%
Related substances by HPLC: Δ8-Tetrahydrocannabinol ([2]; 25° C./60% RH, 2 months): <0.02% (ND)
Related substances by HPLC: Δ9-Tetrahydrocannabinol ([2]; 25° C./60% RH, 2 months): <0.02% (ND)
Appearance ([2]; 25° C./60% RH, 3 months): Off-white
Assay by HPLC ([2]; 25° C./60% RH, 3 months): 98.1%
Each unspecified impurity: RRT~1.983 ([2]; 25° C./60% RH, 3 months): 0.05%
Each unspecified impurity: RRT~2.260 ([2]; 25° C./60% RH, 3 months): 0.10%
Related substances by HPLC (low level): Δ8-Tetrahydrocannabinol ([2]; 25° C./60% RH, 3 months): 8 ppm
Related substances by HPLC (low level): Δ9-Tetrahydrocannabinol ([2]; 25° C./60% RH, 3 months): 13 ppm
Related substances by HPLC: 4-Monobromo-CBD ([2]; 25° C./60% RH, 3 months): <0.03% (0.02%)
Related substances by HPLC: Olivetol ([2]; 25° C./60% RH, 3 months): <0.03% (ND)
Related substances by HPLC: Sum of impurities, ≥0.05% ([2]; 25° C./60% RH, 3 months): 0.15%
Related substances by HPLC: Δ8-Tetrahydrocannabinol ([2]; 25° C./60% RH, 3 months): <0.02% (ND)
Related substances by HPLC: Δ9-Tetrahydrocannabinol ([2]; 25° C./60% RH, 3 months): <0.02% (ND)
Appearance ([2]; 40° C./75% RH, 0 month): White
Assay by HPLC ([2]; 40° C./75% RH, 0 month): 99.9%
Each unspecified impurity: RRT~1.540 ([2]; 40° C./75% RH, 0 month): 0.06%
Each unspecified impurity: RRT~1.690 ([2]; 40° C./75% RH, 0 month): 0.11%
Related substances by HPLC (low level): Δ9-Tetrahydrocannabinol ([2]; 40° C./75% RH, 0 month): 26 ppm
Related substances by HPLC: 4-Monobromo-CBD ([2]; 40° C./75% RH, 0 month): <0.03% (0.02%)
Related substances by HPLC: Olivetol ([2]; 40° C./75% RH, 0 month): <0.03% (ND)
Related substances by HPLC: Sum of impurities, ≥0.05% ([2]; 40° C./75% RH, 0 month): 0.17%
Related substances by HPLC: Δ9-Tetrahydrocannabinol ([2]; 40° C./75% RH, 0 month): <0.02% (ND)
Appearance ([2]; 40° C./75% RH, 1 month): Yellow Powder
Assay by HPLC ([2]; 40° C./75% RH, 1 month): 98.7%
Each unspecified impurity: RRT~1.928 ([2]; 40° C./75% RH, 1 month): 0.06%
Each unspecified impurity: RRT~2.150 ([2]; 40° C./75% RH, 1 month): 0.11%
Related substances by HPLC (low level): Δ8-Tetrahydrocannabinol ([2]; 40° C./75% RH, 1 month): 7 ppm
Related substances by HPLC (low level): Δ9-Tetrahydrocannabinol ([2]; 40° C./75% RH, 1 month): 28 ppm
Related substances by HPLC: 4-Monobromo-CBD ([2]; 40° C./75% RH, 1 month): <0.03% (0.02)
Related substances by HPLC: Olivetol ([2]; 40° C./75% RH, 1 month): <0.03% (ND)
Related substances by HPLC: Sum of impurities, ≥0.05% ([2]; 40° C./75% RH, 1 month): 0.17%
Related substances by HPLC: Δ8-Tetrahydrocannabinol ([2]; 40° C./75% RH, 1 month): <0.02% (ND)
Related substances by HPLC: Δ9-Tetrahydrocannabinol ([2]; 40° C./75% RH, 1 month): <0.02% (ND)
Appearance ([2]; 40° C./75% RH, 2 months): Off-White
Assay by HPLC ([2]; 40° C./75% RH, 2 months): 99.6%
Each unspecified impurity: RRT~1.931 ([2]; 40° C./75% RH, 2 months): 0.06%
Each unspecified impurity: RRT~2.151 ([2]; 40° C./75% RH, 2 months): 0.07%
Related substances by HPLC (low level): Δ8-Tetrahydrocannabinol ([2]; 40° C./75% RH, 2 months): 4 ppm
Related substances by HPLC (low level): Δ9-Tetrahydrocannabinol ([2]; 40° C./75% RH, 2 months): 27 ppm
Related substances by HPLC: 4-Monobromo-CBD ([2]; 40° C./75% RH, 2 months): <0.03% (0.02)
Related substances by HPLC: Olivetol ([2]; 40° C./75% RH, 2 months): <0.03% (ND)
Related substances by HPLC: Sum of impurities, ≥0.05% ([2]; 40° C./75% RH, 2 months): 0.13%
Related substances by HPLC: Δ8-Tetrahydrocannabinol ([2]; 40° C./75% RH, 2 months): <0.02% (ND)
Related substances by HPLC: Δ9-Tetrahydrocannabinol ([2]; 40° C./75% RH, 2 months): <0.02% (ND)
Appearance ([2]; 40° C./75% RH, 3 months): Off-white
Assay by HPLC ([2]; 40° C./75% RH, 3 months): 99.0%
Each unspecified impurity: RRT~1.982 ([2]; 40° C./75% RH, 3 months): 0.05%
Each unspecified impurity: RRT~2.258 ([2]; 40° C./75% RH, 3 months): 0.09%
Related substances by HPLC (low level): Δ8-Tetrahydrocannabinol ([2]; 40° C./75% RH, 3 months): 8 ppm
Related substances by HPLC (low level): Δ9-Tetrahydrocannabinol ([2]; 40° C./75% RH, 3 months): 17 ppm
Related substances by HPLC: 4-Monobromo-CBD ([2]; 40° C./75% RH, 3 months): <0.03% (0.02)
Related substances by HPLC: Olivetol ([2]; 40° C./75% RH, 3 months): <0.03% (ND)
Related substances by HPLC: Sum of impurities, ≥0.05% ([2]; 40° C./75% RH, 3 months): 0.14%
Related substances by HPLC: Δ8-Tetrahydrocannabinol ([2]; 40° C./75% RH, 3 months): <0.02% (ND)
Related substances by HPLC: Δ9-Tetrahydrocannabinol ([2]; 40° C./75% RH, 3 months): <0.02% (ND)
Appearance ([2]; 40° C./75% RH, 5 months): Beige/off-
Assay by HPLC ([2]; 40° C./75% RH, 5 months): 98.6%
Each unspecified impurity: Methadienol deg-1 ([2]; 40° C./75% RH, 5 months): deg-1: 0.03%
Each unspecified impurity: RRT~0.956 ([2]; 40° C./75% RH, 5 months): 0.04%
Each unspecified impurity: RRT~1.918 ([2]; 40° C./75% RH, 5 months): 0.05%
Related substances by HPLC (low level): Δ8-Tetrahydrocannabinol ([2]; 40° C./75% RH, 5 months): 36 ppm
Related substances by HPLC (low level): Δ9-Tetrahydrocannabinol ([2]; 40° C./75% RH, 5 months): 24 ppm
Related substances by HPLC: 4-Monobromo-CBD ([2]; 40° C./75% RH, 5 months): <0.03% (ND)
Related substances by HPLC: Olivetol ([2]; 40° C./75% RH, 5 months): <0.03% (ND)
Related substances by HPLC: Sum of impurities, ≥0.05% ([2]; 40° C./75% RH, 5 months): 0.05%
Related substances by HPLC: Δ8-Tetrahydrocannabinol ([2]; 40° C./75% RH, 5 months): <0.02% (ND)
Related substances by HPLC: Δ9-Tetrahydrocannabinol ([2]; 40° C./75% RH, 5 months): <0.02% (ND)

C=C(C)[C@@H]1CCC(C)=C[C@H]1c1c(O)cc(CCCCC)cc1O [Sample 5, Cannabidiol]
Result (D9-THC in ppm) [1]: 21.7 ppm
